Read-outs that look alike come from different tables or passages of the source. Numbered stars: 1 amine (or outer) side, 2 acyl side, 3 side chain; on linkers, the order of the positions; unused ones are H or OH. Square brackets hold non-standard residues; d marks the D form. Side chains are listed from the residue outwards. Peptide text beside a SMILES is read from it. * marks the point of attachment. C18 diacid = O=C(O)CCCCCCCCCCCCCCCCC(=O)*; γGlu = O=C(O)[C@H](CCC(=O)[*:2])N[*:1]; εLys = N[C@@H](CCCCN[*:1])C(=O)[*:2]; AEEA = NCCOCCOCC(=O)O; Aib = CC(C)(N)C(=O)O
Assays:
human GLP-1 receptor [1] = molecular target: T1, human GLP-1 receptor (Homo sapiens, UniProt P43220); experiment: In vitro potency (CRE luciferase; whole cells); assay type: cell-based; set-up: EC50/pM (ratio 1% HSA/0% HSA): unit not given here; details: for EC50: BHK cells; for EC50/pM (ratio 1% HSA/0% HSA): ratio of EC50 at 1% HSA to EC50 at 0% HSA
T1 construct: expressed in transfected cells; host or cells: BHK cells, clone FCW467-12A/KZ10-1 (parent line BHKTS13), further transfected with CRE luciferase
Method in brief: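 Reporter: CRE-luciferase in BHK cells stably expressing human GLP-1R, 5×10^3 cells/well; compounds tested in buffer containing 0% or 1% HSA.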

[2] = Pharmacokinetic (PK) study in rat; details: male, Sprague Dawley, in vivo, iv, 6 nmol/kg
Procedure: The purpose of this Example is to investigate half-life in vivo in rat.
In vivo pharmacokinetic studies in rats were performed with the GLP-1 derivatives of a number of the Example compounds, as described in the following.
Male Sprague Dawley rats of same age with a body weight of approximately 400 g were obtained from Taconic (Denmark) and assigned to the treatments by simple randomisation on body weight, approximately 4 rats per group.
The GLP-1 derivatives (approximately 6 nmol/ml) were dissolved in 50 mM sodium phosphate, 145 mM sodium chloride, 0.05% tween 80, pH 7.4. Intravenous injections (1.0 ml/kg) of the compounds were given with a syringe in the tail vein of conscious rats. Blood was sampled from vena sublingualis for 5 days post dosing. Blood samples (200 μl) were collected in EDTA buffer (8 mM) and then centrifuged at 4° C. and 10000 G for 5 minutes. Plasma samples were kept at −20° C. until analyzed for plasma concentration of the respective GLP-1 compound.
The donor beads were coated with streptavidin, while acceptor beads were conjugated with a monoclonal antibody recognising a mid-/C-terminal epitope of the peptide. Another monoclonal antibody, specific for the N-terminus, was biotinylated. The three reactants were combined with the analyte and formed a two-sited immuno-complex. Illumination of the complex released singlet oxygen atoms from the donor beads, which were channeled into the acceptor beads and triggered chemiluminescence which was measured in an Envision plate reader. The amount of light was proportional to the concentration of the compound.
Plasma concentration-time profiles were analyzed using Phoenix WinNonLin ver. 6.2, Pharsight Inc., Mountain View, Calif., USA), and the half-life (T1/2) calculated using individual plasma concentration-time profiles from each animal.

human GLP-1 receptor [3] = molecular target: T1, human GLP-1 receptor; experiment: GLP-1 receptor binding (SPA, displacement of 125I-GLP-1)
Method in brief: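 Tracer [125I]-GLP-1(7-36)NH2 at 0.06 nM final competed on hamster stably transfected cell membranes captured by WGA SPA beads; 120 min, 30 °C, scintillation count.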

[4] = In vitro potency (CRE luciferase) EC50 (0% HSA), 0% HSA
[5] = In vitro potency (CRE luciferase) EC50 (1% HSA), 1% HSA
[6] = Receptor binding affinity IC50 (high HSA), 2.0% HSA (high albumin)
[7] = 0.001% HSA (low albumin), read-out: Receptor binding affinity IC50 (low HSA)
[8] = Receptor binding affinity IC50 (low HSA), 0.001% HSA (low albumin)

T1 sequence (P43220 24-463): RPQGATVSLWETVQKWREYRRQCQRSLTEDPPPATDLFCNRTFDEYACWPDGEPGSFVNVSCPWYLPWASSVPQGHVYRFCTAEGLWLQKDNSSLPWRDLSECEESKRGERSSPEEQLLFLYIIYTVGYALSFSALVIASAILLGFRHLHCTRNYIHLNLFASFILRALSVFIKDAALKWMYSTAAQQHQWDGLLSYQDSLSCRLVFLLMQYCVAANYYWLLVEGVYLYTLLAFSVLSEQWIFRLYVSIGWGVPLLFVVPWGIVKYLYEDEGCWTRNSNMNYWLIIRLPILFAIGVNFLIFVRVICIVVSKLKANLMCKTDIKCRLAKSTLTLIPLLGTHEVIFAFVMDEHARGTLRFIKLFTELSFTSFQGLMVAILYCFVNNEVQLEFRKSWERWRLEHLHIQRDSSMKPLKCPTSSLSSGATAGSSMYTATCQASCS

Row | IC50 (human GLP-1 receptor [3]; [7]) | IC50 (human GLP-1 receptor [3]; 2.0% HSA (high albumin), read-out: Receptor binding affinity IC50 (high HSA)) | EC50 (human GLP-1 receptor [1]; 0% HSA, read-out: In vitro potency (CRE luciferase) EC50 (0% HSA)) | IC50 (high HSA) (human GLP-1 receptor [3]; Receptor binding affinity IC50 (high HSA), 2.0% HSA (high albumin), heading: Receptor binding affinity IC50) | Structure (SMILES) | EC50 (human GLP-1 receptor [1]; [4]) | EC50 (human GLP-1 receptor [1]; [5]) | half-life [2] | IC50 (human GLP-1 receptor [3]; [6]) | IC50 (human GLP-1 receptor [3]; [8]) | EC50/pM (ratio 1% HSA/0% HSA) (human GLP-1 receptor [1])
1 | – | – | – | – | CC[C@H](C)[C@H](NC(=O)[C@H](Cc1ccccc1)NC(=O)[C@H](CCC(=O)O)NC(=O)[C@H](CCCCNC(=O)[C@@H](N)CCCCNC(=O)[C@@H](N)CCCCNC(=O)CC[C@H](NC(=O)CCCCCCCCCOc1ccc(C(=O)O)cc1)C(=O)O)NC(=O)[C@H](C)NC(=O)[C@H](C)NC(=O)[C@H](CCC(N)=O)NC(=O)CNC(=O)[C@H](CCC(=O)O)NC(=O)[C@H](CC(C)C)NC(=O)[C@H](Cc1ccc(O)cc1)NC(=O)[C@H](CO)NC(=O)[C@H](CO)NC(=O)[C@@H](NC(=O)[C@H](CC(=O)O)NC(=O)[C@H](CO)NC(=O)[C@@H](NC(=O)[C@H](Cc1ccccc1)NC(=O)[C@@H](NC(=O)CNC(=O)[C@H](CCC(=O)O)NC(=O)C(C)(C)NC(=O)[C@@H](N)Cc1c[nH]cn1)[C@@H](C)O)[C@@H](C)O)C(C)C)C(=O)N[C@@H](C)C(=O)N[C@@H](Cc1c[nH]c2ccccc12)C(=O)N[C@@H](CC(C)C)C(=O)N[C@H](C(=O)N[C@@H](CCCNC(=N)N)C(=O)NCC(=O)N[C@@H](CCCNC(=N)N)C(=O)N[C@@H](CCCCNC(=O)[C@@H](N)CCCCNC(=O)[C@@H](N)CCCCNC(=O)CC[C@H](NC(=O)CCCCCCCCCOc1ccc(C(=O)O)cc1)C(=O)O)C(=O)O)C(C)C [Example 1, N^ε26-[(2S)-2-amino-6-[[(2S)-2-amino-6-[[(4S)-4-carboxy-4-[10-(4-carboxyphenoxy)decanoylamino]butanoyl]amino]hexanoyl]amino]hexanoyl], N^ε37-[(2S)-2-amino-6-[[(2S)-2-amino-6-[[(4S)-4-carboxy-4-[10-(4-carboxyphenoxy)decanoylamino]butanoyl]amino]hexanoyl]amino]hexanoyl]-[Aib^8, Arg^34,Lys^37]-GLP-1-(7-37)-peptide] | 0.004 nM | 0.057 nM | 14 h | 13 nM | – | –
2 | 0.24 nM | 29 nM | – | – | CC[C@H](C)[C@H](NC(=O)[C@H](Cc1ccccc1)NC(=O)[C@H](CCC(=O)O)NC(=O)[C@H](CCCCNC(=O)[C@@H](N)CCCCNC(=O)[C@@H](N)CCCCNC(=O)CC[C@H](NC(=O)CCCCCCCCCCCCC(=O)O)C(=O)O)NC(=O)[C@H](C)NC(=O)[C@H](C)NC(=O)[C@H](CCC(N)=O)NC(=O)CNC(=O)[C@H](CCC(=O)O)NC(=O)[C@H](CC(C)C)NC(=O)[C@H](Cc1ccc(O)cc1)NC(=O)[C@H](CO)NC(=O)[C@H](CO)NC(=O)[C@@H](NC(=O)[C@H](CC(=O)O)NC(=O)[C@H](CO)NC(=O)[C@@H](NC(=O)[C@H](Cc1ccccc1)NC(=O)[C@@H](NC(=O)CNC(=O)[C@H](CCC(=O)O)NC(=O)C(C)(C)NC(=O)[C@@H](N)Cc1c[nH]cn1)[C@@H](C)O)[C@@H](C)O)C(C)C)C(=O)N[C@@H](C)C(=O)N[C@@H](Cc1c[nH]c2ccccc12)C(=O)N[C@@H](CC(C)C)C(=O)N[C@H](C(=O)N[C@@H](CCCNC(=N)N)C(=O)NCC(=O)N[C@@H](CCCNC(=N)N)C(=O)N[C@@H](CCCCNC(=O)[C@@H](N)CCCCNC(=O)[C@@H](N)CCCCNC(=O)CC[C@H](NC(=O)CCCCCCCCCCCCC(=O)O)C(=O)O)C(=O)O)C(C)C [Example 2, N^ε26-[(2S)-2-amino-6-[[(2S)-2-amino-6-[[(4S)-4-carboxy-4-(13-carboxytridecanoylamino)butanoyl]amino]hexanoyl]amino]hexanoyl], N^ε37-[(2S)-2-amino-6-[[(2S)-2-amino-6-[[(4S)-4-carboxy-4-(13-carboxytridecanoylamino)butanoyl]amino]hexanoyl]amino]hexanoyl]-[Aib^8,Arg^34,Lys^37]-GLP-1-(7-37)-peptide] | – | 0.059 nM | – | – | – | –
3 | – | – | – | – | CC[C@H](C)[C@H](NC(=O)[C@H](Cc1ccccc1)NC(=O)[C@H](CCC(=O)O)NC(=O)[C@H](CCCCNC(=O)[C@@H](N)CCCCNC(=O)COCCOCCNC(=O)COCCOCCNC(=O)CC[C@H](NC(=O)CCCCCCCCCOc1ccc(C(=O)O)cc1)C(=O)O)NC(=O)[C@H](C)NC(=O)[C@H](C)NC(=O)[C@H](CCC(N)=O)NC(=O)CNC(=O)[C@H](CCC(=O)O)NC(=O)[C@H](CC(C)C)NC(=O)[C@H](Cc1ccc(O)cc1)NC(=O)[C@H](CO)NC(=O)[C@H](CO)NC(=O)[C@@H](NC(=O)[C@H](CC(=O)O)NC(=O)[C@H](CO)NC(=O)[C@@H](NC(=O)[C@H](Cc1ccccc1)NC(=O)[C@@H](NC(=O)CNC(=O)[C@H](CCC(=O)O)NC(=O)C(C)(C)NC(=O)[C@@H](N)Cc1c[nH]cn1)[C@@H](C)O)[C@@H](C)O)C(C)C)C(=O)N[C@@H](C)C(=O)N[C@@H](Cc1c[nH]c2ccccc12)C(=O)N[C@@H](CC(C)C)C(=O)N[C@H](C(=O)N[C@@H](CCCNC(=N)N)C(=O)NCC(=O)N[C@@H](CCCNC(=N)N)C(=O)N[C@@H](CCCCNC(=O)[C@@H](N)CCCCNC(=O)COCCOCCNC(=O)COCCOCCNC(=O)CC[C@H](NC(=O)CCCCCCCCCOc1ccc(C(=O)O)cc1)C(=O)O)C(=O)O)C(C)C [Example 5] | 0.0054 nM | 0.033 nM | – | 64 nM | 1.03 nM | –
4 | – | – | – | – | CC[C@H](C)[C@H](NC(=O)[C@H](Cc1ccccc1)NC(=O)[C@H](CCC(=O)O)NC(=O)[C@H](CCCCNC(=O)[C@@H](N)CCCCNC(=O)COCCOCCNC(=O)CC[C@H](NC(=O)CC[C@H](NC(=O)CCCCCCCCCCCOc1ccc(C(=O)O)cc1)C(=O)O)C(=O)O)NC(=O)[C@H](C)NC(=O)[C@H](C)NC(=O)[C@H](CCC(N)=O)NC(=O)CNC(=O)[C@H](CCC(=O)O)NC(=O)[C@H](CC(C)C)NC(=O)[C@H](Cc1ccc(O)cc1)NC(=O)[C@H](CO)NC(=O)[C@H](CO)NC(=O)[C@@H](NC(=O)[C@H](CC(=O)O)NC(=O)[C@H](CO)NC(=O)[C@@H](NC(=O)[C@H](Cc1ccccc1)NC(=O)[C@@H](NC(=O)CNC(=O)[C@H](CCC(=O)O)NC(=O)C(C)(C)NC(=O)[C@@H](N)Cc1c[nH]cn1)[C@@H](C)O)[C@@H](C)O)C(C)C)C(=O)N[C@@H](C)C(=O)N[C@@H](Cc1c[nH]c2ccccc12)C(=O)N[C@@H](CC(C)C)C(=O)N[C@H](C(=O)N[C@@H](CCCNC(=N)N)C(=O)NCC(=O)N[C@@H](CCCNC(=N)N)C(=O)N[C@@H](CCCCNC(=O)[C@@H](N)CCCCNC(=O)COCCOCCNC(=O)CC[C@H](NC(=O)CC[C@H](NC(=O)CCCCCCCCCCCOc1ccc(C(=O)O)cc1)C(=O)O)C(=O)O)C(=O)O)C(C)C [Example 15, N^ε26-[(2S)-2-amino-6-[[2-[2-[2-[[(4S)-4-carboxy-4-[[(4S)-4-carboxy-4-[12-(4-carboxyphenoxy)dodecanoylamino]butanoyl]amino]butanoyl]amino]ethoxy]ethoxy]acetyl]amino]hexanoyl], N^ε37-[(2S)-2-amino-6-[[2-[2-[2-[[(4S)-4-carboxy-4-[[(4S)-4-carboxy-4-[12-(4-carboxyphenoxy)dodecanoylamino]butanoyl]amino]butanoyl]amino]ethoxy]ethoxy]acetyl]amino]hexanoyl]-[Aib^8,Arg^34,Lys^37]-GLP-1-(7-37)-peptide] | 0.0037 nM | 0.327 nM | 20 h | 303 nM | 0.35 nM | 93
5 | 1.67 nM | – | 0.017 nM | ≥ 1000 nM | CC[C@H](C)[C@H](NC(=O)[C@H](Cc1ccccc1)NC(=O)[C@H](CCC(=O)O)NC(=O)[C@H](CCCCNC(=O)[C@@H](N)CCCCNC(=O)COCCOCCNC(=O)COCCOCCNC(=O)CC[C@H](NC(=O)CCCCCCCCCCCCCCCCC(=O)O)C(=O)O)NC(=O)[C@H](C)NC(=O)[C@H](C)NC(=O)[C@H](CCC(N)=O)NC(=O)[C@H](CCC(=O)O)NC(=O)[C@H](CCC(=O)O)NC(=O)[C@H](CC(C)C)NC(=O)[C@H](Cc1ccc(O)cc1)NC(=O)[C@H](CO)NC(=O)[C@H](CO)NC(=O)[C@@H](NC(=O)[C@H](CC(=O)O)NC(=O)[C@H](CO)NC(=O)[C@@H](NC(=O)[C@H](Cc1ccccc1)NC(=O)[C@@H](NC(=O)CNC(=O)[C@H](CCC(=O)O)NC(=O)C(C)(C)NC(=O)[C@@H](N)Cc1c[nH]cn1)[C@@H](C)O)[C@@H](C)O)C(C)C)C(=O)N[C@@H](C)C(=O)N[C@@H](Cc1c[nH]c2ccccc12)C(=O)N[C@@H](CC(C)C)C(=O)N[C@H](C(=O)N[C@@H](CCC(N)=O)C(=O)NCC(=O)N[C@@H](CCCNC(=N)N)C(=O)N[C@@H](CCCCNC(=O)[C@@H](N)CCCCNC(=O)COCCOCCNC(=O)COCCOCCNC(=O)CC[C@H](NC(=O)CCCCCCCCCCCCCCCCC(=O)O)C(=O)O)C(=O)O)C(C)C [Example 28, N^ε26-[(2S)-2-amino-6-[[2-[2-[2-[[2-[2-[2-[[(4S)-4-carboxy-4-(17-carboxyheptadecanoylamino)butanoyl]amino]ethoxy]ethoxy]acetyl]amino]ethoxy]ethoxy]acetyl]amino]hexanoyl], N^ε37-[(2S)-2-amino-6-[[2-[2-[2-[[2-[2-[2-[[(4S)-4-carboxy-4-(17-carboxyheptadecanoylamino)butanoyl]amino]ethoxy]ethoxy]acetyl]amino]ethoxy]ethoxy]acetyl]amino]hexanoyl]-[Aib^8,Glu^22,Gln^34, Lys^37]-GLP-1-(7-37)-peptide] (H-H[Aib]EGTFTSDVSSYLEEQAAK([εLys-AEEA-AEEA-γGlu-C18 diacid])EFIAWLVQGRK([εLys-AEEA-AEEA-γGlu-C18 diacid])-OH; N-terminus and C-terminus assumed) | – | 5.73 nM | – | – | – | 329
